The source of these data is paper PMC3404744 (Molecular Pharmaceutics, 2011).

Data set [1] relates to pooled human liver microsomes (pHLM). The experiment in a line: Glucuronidation kinetic profile in pooled human liver microsomes. In kind it is in vitro ADME. The conditions noted are these: flavonoids 4′-O-glucuronidation, SN-38 glucuronidation.
Data set [2] deals with T1, UGT1A9 (Homo sapiens, UniProt O60656).
T1 sequence (O60656 26-530): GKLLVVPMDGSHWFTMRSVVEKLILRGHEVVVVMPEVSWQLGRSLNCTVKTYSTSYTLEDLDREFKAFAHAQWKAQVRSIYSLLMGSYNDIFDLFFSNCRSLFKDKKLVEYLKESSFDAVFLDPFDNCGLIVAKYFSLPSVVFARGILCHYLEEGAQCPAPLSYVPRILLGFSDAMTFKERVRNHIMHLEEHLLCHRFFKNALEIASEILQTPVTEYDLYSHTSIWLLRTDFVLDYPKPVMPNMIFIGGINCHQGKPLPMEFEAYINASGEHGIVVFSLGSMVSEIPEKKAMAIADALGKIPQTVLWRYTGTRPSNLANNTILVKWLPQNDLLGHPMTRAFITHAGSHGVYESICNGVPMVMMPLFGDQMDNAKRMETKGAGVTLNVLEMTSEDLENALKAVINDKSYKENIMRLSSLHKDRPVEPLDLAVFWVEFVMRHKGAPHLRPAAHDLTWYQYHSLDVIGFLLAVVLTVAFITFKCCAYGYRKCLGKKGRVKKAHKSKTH
Nature of the data set: Glucuronidation kinetics with recombinant human UGT1A9. The format is in vitro ADME. The conditions noted are these: 10 μM.

For data set [3], the target named is T2, UGT1A1 (Homo sapiens, UniProt P22309).
T2 sequence (P22309 26-533): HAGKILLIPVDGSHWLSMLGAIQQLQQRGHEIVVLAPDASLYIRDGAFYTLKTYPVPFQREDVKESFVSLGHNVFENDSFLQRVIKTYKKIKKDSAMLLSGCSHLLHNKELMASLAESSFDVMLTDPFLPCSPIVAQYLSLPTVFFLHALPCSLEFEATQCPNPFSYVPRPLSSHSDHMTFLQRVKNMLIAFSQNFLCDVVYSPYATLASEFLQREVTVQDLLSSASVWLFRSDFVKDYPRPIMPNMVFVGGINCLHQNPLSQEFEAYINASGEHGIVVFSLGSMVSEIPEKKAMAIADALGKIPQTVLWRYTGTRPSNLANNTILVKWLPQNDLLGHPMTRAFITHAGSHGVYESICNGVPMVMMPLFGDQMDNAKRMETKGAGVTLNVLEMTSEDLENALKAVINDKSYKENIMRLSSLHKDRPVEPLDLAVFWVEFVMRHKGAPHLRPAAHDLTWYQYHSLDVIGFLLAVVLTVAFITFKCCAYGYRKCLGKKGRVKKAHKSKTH
The format is in vitro ADME.

For data set [4] the following is noted: after a standard therapy; cited from earlier work.
The target in data set [5] is T2, UGT1A1. Nature of the data set: Glucuronidation kinetics with recombinant human UGT1A1. The format is in vitro ADME. The conditions noted are these: for Glucuronide isomers formed by UGT1A1: recombinant UGT1A1.
Data set [6] concerns 12 recombinant human UGT isoforms. Nature of the data set: Phenotyping using 12 recombinant UGTs. The conditions noted are these: by CLint. The format is in vitro ADME.

Some results are limits rather than exact numbers.

For `CCc1c2c(nc3ccc(O)cc13)-c1cc3c(c(=O)n1C2)COC(=O)[C@]3(O)CC` [SN-38, 7-ethyl-10-hydroxycamptothecin], in data set [1], the “Pattern of kinetic profile” value is “substrate inhibition”. Moreover, in data set [2], the “UGT1A9 activity, folds less than that of UGT1A1” value is recorded as ~5 folds. Moreover, the “Glucuronidation in pHLM correlated with UGT1A1 activities (RAF approach)” value in data set [3] came to 103 ± 8%. The In vivo concentration in data set [4] was < 0.1 µM.
For the molecule `O=c1c(O)c(-c2ccc(O)c(O)c2)oc2ccccc12` [33′4′THF, 3,3′,4′-trihydroxyflavone], the “Pattern of kinetic profile” value in data set [1] is on record as “substrate inhibition”. For the same molecule, in data set [5], the “Km for recombinant UGT1A1 (4′-O-glucuronidation) compared with pooled HLM” value is “essentially identical”; the “Glucuronide isomers formed by UGT1A1” value was 3′-O- and 4′-O-glucuronide. In addition, the “Main isoforms glucuronidating the flavonoid” value in data set [6] was “UGT1A1, 1A7 and 1A9”.
In the case of `O=c1c(O)c(-c2ccc(O)cc2)oc2ccc(O)cc12` [364′THF, 3,6,4′-trihydroxyflavone], in data set [1], the “Pattern of kinetic profile” value is listed as “substrate inhibition”. Further, in data set [5], the “Km for recombinant UGT1A1 (4′-O-glucuronidation) compared with pooled HLM” value is “essentially identical”; the “Glucuronide isomers formed by UGT1A1” value was 3-O-, 6-O-, and 4′-O-glucuronide. Moreover, the “Main isoforms glucuronidating the flavonoid” value in data set [6] was “UGT1A1, 1A7 and 1A9”.
